Results: article PMC8329121 (Journal of Neuroimmune Pharmacology, 2021)
Where a chain is given by its changes, count along the chain named.

Legend:
[1] = target: T1, E2C-I159C/H547A (C90A/C306A/I159C/H547A) (Homo sapiens, UniProt Q01959, C306A/C90A/H547A/I159C); test: MTSET assay, [3H]DA uptake in HEK293 cells; assay type: cell-based; conditions: 1 mM MTSET
T1 construct: expressed in transfected cells; host or cells: HEK293 cells, transient, pcDNA3.1+
T1 sequence (Q01959 1-620 C90A/I159C/C306A/H547A): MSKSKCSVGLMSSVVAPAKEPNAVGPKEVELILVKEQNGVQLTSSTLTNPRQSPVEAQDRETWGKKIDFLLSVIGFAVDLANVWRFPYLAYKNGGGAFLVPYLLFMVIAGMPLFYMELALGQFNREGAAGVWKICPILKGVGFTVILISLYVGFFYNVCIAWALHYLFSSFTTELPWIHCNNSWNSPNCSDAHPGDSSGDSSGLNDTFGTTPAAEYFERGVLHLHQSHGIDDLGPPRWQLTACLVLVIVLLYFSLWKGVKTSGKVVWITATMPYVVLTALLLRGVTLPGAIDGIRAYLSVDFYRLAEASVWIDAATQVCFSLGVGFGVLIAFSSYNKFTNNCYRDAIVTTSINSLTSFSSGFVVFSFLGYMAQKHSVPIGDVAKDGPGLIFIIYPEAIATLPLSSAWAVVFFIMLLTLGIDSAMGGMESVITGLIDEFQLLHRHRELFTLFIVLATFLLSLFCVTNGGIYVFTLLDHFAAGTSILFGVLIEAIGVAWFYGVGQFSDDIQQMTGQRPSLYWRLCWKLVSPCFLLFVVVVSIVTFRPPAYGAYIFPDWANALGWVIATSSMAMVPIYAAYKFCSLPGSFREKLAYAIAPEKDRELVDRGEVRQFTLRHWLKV
Text: (§1) All mutants on hDAT were generated based on the predictions made using our computational model, as described previously using site-directed mutagenesis based on the wild-type hDAT (WT hDAT) sequence (NCBI, cDNA clone MGC: 164,608 IMAGE: 40,146,999) (Quizon et al. [2016]). The combination of hDAT mutations on Asp206 and His547 (Aspartic acid 206 to leucine and histidine 547 to alanine, D206L/H547A) were predicted to eliminate two hydrogen bonds between Tat and hDAT. In addition, the combination of mutations on Tyr88, Asp206, and His547 (tyrosine88 to phenylalanine and aspartic acid 206 to leucine and histidine 547 to alanine, Y88F/D206L/H547A) were predicted to eliminate three hydrogen bonds from the Tat-hDAT complex. Two extracellular cysteine90 and cysteine306 residues on WT hDAT were mutated to alanine as E2C hDAT (C90A/C306A hDAT), rendering the E2C hDAT MTSET-insensitive background (Pedersen et al. [2014]). A triple mutation of the two cysteine90 and 306 residues to alanine and […] to cysteine on WT hDAT was generated as E2C-I159C hDAT (C90A/C306A/I159C) for MTSET-sensitive construct. A combination of C90A/C306A/H547A was generated as E2C/H547A hDAT for MTSET-insensitive control for H547A. To determine whether H547A-enhanced DA transport is mediated by changing transporter conformation, two combinations of C90A/C306A/I159C/H547A and C90A/C306A/I159A/H547A were generated as E2C-I159C/H547A and E2C-I159A/H547A for positive and negative controls for MTSET sensitive background, respectively. Synthetic cDNA encoding hDAT subcloned into pcDNA3.1+ (provided by Dr. Haley E Melikian, University of Massachusetts) was used as a template to generate mutants using site-directed mutagenesis performed by GENEWIZ (South Plainfield, NJ). DNA sequencing was also performed by GENEWIZ to confirm the sequences of the mutant constructs. Plasmid DNA were propagated and purified using the Qiagen Hi-speed maxi prep plasmid DNA isolation kit (Qiagen, Valencia, CA, USA).
(§2) This assay was performed based on the previous report with minor modifications (Loland et al. [2004], [2008]). First, we generated five WT hDAT based plasmid construct for MTSET-insensitive or sensitive background as we described above. HEK293 cells were grown in poly-d-lysine coated plates at a density of 1 × 10^5 cells/cm^2 were transfected with different E2C- associated hDAT background constructs: E2C hDAT, E2C-I159C hDAT, E2C/H547A hDAT, E2C-I159C/H547A or E2C-I159A/H547A. Twenty-four hours after the transfection, cells were washed twice with 1× KRH buffer, and preincubated with or without the presence of 10 µM nomifensine (for non-specific uptake) and MTSET for 10 min at room temperature. MTSET at 1 mM final concentration was chosen based on a pilot study on optimizing MTSET concentrations (0.1, 0.5 or 1.0 mM). […] Because MTSET is easily hydrolyzed in solution, the amount needed for a 10 × stock was weighed out and dissolved in 1 × KRH buffer just right before adding to the assigned wells, for a 10-fold dilution (final concentration of 1 mM in final volume of 250 µl). […] Cells were immediately washed twice with ice-cold 1 × KRH buffer to terminate the reaction and were lysed rapidly with the addition of 1 % SDS. Cell lysates were collected after incubation for 1 h at room temperature and radioactivity was determined the next day.

[2] = target: T2, E2C-I159A/H547A (C90A/C306A/I159A/H547A) (Homo sapiens, UniProt Q01959, C306A/C90A/H547A/I159A); test: MTSET assay, [3H]DA uptake in HEK293 cells; assay type: cell-based; conditions: 1 mM MTSET
T2 construct: expressed in transfected cells; host or cells: HEK293 cells, transient, pcDNA3.1+
T2 sequence (Q01959 1-620 C90A/I159A/C306A/H547A): T1 sequence (Q01959 1-620 C90A/I159C/C306A/H547A) with C159A
Text: as §1, §2

Compound: C[N+](C)(C)CCSS(C)(=O)=O [MTSET, [2-(trimethylammonium)ethyl]-methanethiosulfonate]
- further inhibition of [3H]DA uptake compared to E2C-I159C ([1]; Fig. 8b): 34%
- inhibition of DA uptake relative to E2C ([1]; Fig. 8b): 65%
- [3H]DA uptake in the presence of MTSET ([1]; HEK293, Fig. 8b): 30.4 ± 3.52
- inhibition of DA uptake relative to E2C ([2]; Fig. 8b): 31%
- [3H]DA uptake in the presence of MTSET ([2]; HEK293, Fig. 8b): 59.7 ± 5.7
